From patent publication US20120202756A1, “USE OF PRODRUGS TO AVOID GI MEDIATED ADVERSE EVENTS” (priority 2009, published 2012)
≈ marks a conversion by molar mass, not a printed value. Where two headings read alike, the source gives them in different places.

Experiments:
Assay in all cases: microbe, parasite or virus in culture
[1] = test system: Clostridium difficile; details: Clostridioides difficile
[2] = test system: Porphyromonas endodontalis; details: read-out: Minimum inhibitory concentration
[3] = test system: Prevotella intermedia; details: read-out: Minimum inhibitory concentration
[4] = test system: Peptostreptococcus micros; details: Parvimonas micra, read-out: Minimum inhibitory concentration
[5] = test system: Staphylococcus saprophyticus; details: read-out: Minimum inhibitory concentration
[6] = test system: Streptococcus agalactiae; details: read-out: Minimum inhibitory concentration
[7] = test system: Clostridium sordellii; details: Paraclostridium sordellii, NCTC13356, read-out: Minimum inhibitory concentration

Structure (SMILES): CCC[C@@H]1C[C@@H](C(=O)N[C@@H]([C@H]2O[C@H](SC)[C@H](O)[C@@H](O)[C@H]2O)[C@H](C)Cl)N(C)C1 [Clindamycin, clindamycin, reference compound]
- MIC ([1]; ATCC700057, read-out: Minimum inhibitory concentration, ATCC 700057): 8 µg/mL (≈ 18.8 µM)
- MIC ([1]; NCTC13366, read-out: Minimum inhibitory concentration, NCTC 13366 - NAP1/027): 4 µg/mL (≈ 9.41 µM)
- MIC ([1]; read-out: Minimum inhibitory concentration, antibiotic-susceptible clinical isolate): 8 µg/mL (≈ 18.8 µM)
- MIC ([1]; read-out: Minimum inhibitory concentration, ribotype 002 - clinical isolate): 2 µg/mL (≈ 4.71 µM)
- MIC ([1]; read-out: Minimum inhibitory concentration, ribotype 011 - clinical isolate): 4 µg/mL (≈ 9.41 µM)
- MIC ([1]; read-out: Minimum inhibitory concentration, ribotype 027 - clinical isolate): 4 µg/mL (≈ 9.41 µM)
- MIC ([1]; read-out: Minimum inhibitory concentration, ribotype 050 - clinical isolate): 4 µg/mL (≈ 9.41 µM)
- MIC ([1]; read-out: Minimum inhibitory concentration, ribotype 176 - clinical isolate): 4 µg/mL (≈ 9.41 µM)
- MIC [2]: ≤ 0.03 µg/mL
- MIC [3]: ≤ 0.03 µg/mL
- MIC [4]: 0.06 µg/mL (≈ 0.141 µM)
- MIC [5]: 0.06 µg/mL (≈ 0.141 µM)
- MIC [6]: ≤ 0.03 µg/mL
- MIC [7]: 0.5 µg/mL (≈ 1.18 µM)
